Experimental data taken from patent publication US20240269170A1, “Treatment of Inflammatory Conditions or Diseases” (Queen Mary University of London, priority 2021, published 2024).

Tested on: K/B×N serum induced arthritis in C57BL/6 mice
Test: Sustained K/B×N serum induced arthritis, MCTR3 given 10 days after disease onset
Assay type: in vivo, mouse
Procedure: (A-D) K/B×N serum (100 μL via intraperitoneal injection, i.p.) was administered to C57BL/6 mice on days 0, 2 and 8 to initiate and prolong inflammatory arthritis. Mice were treated 1 μg/mouse MCTR3 or vehicle (PBS+0.1% EtOH) on day 10, 12 and 14 via intravenous (i.v.) injection. Disease course was assessed by evaluating A) clinical scores and B) paw oedema daily. Results are mean±SEM, n=9 mice per group. Statistical differences were evaluated using a Two-Way ANOVA. Arrows denote days when MCTR3 was administered. (C,D) paws were harvested on day 25, and cells liberated from the joints and the expression of phenotypic markers was evaluated on joint macrophages using flow cytometry and PLS-DA. (C) scores plot with highlighted regions denoting the clusters representing cells from each group and (D) VIP scores for each of the markers evaluated. Each dot in the score plot represents a separate mouse. (E-H) Arthritis was induced in DBA/1 mice by administration of 10 μg G6PI in CFA on Day 0. On day 24, 26 and 28 (denoted in blue arrows), mice were administered 1 μg/mouse MCTR3 or vehicle (PBS+0.1% EtOH) i.v. and (E) clinical scores and (F) paw oedema were measured. Results are mean±SEM, n=mice 7 per group from 2 separate experiments. Statistical differences were evaluated using a Two-Way ANOVA. (G-H) paws were harvested on day 36, and cells liberated from the joints and the expression of phenotypic markers was evaluated on joint macrophages using flow cytometry and PLS-DA. (G) scores plot with highlighted regions denoting the clusters representing cells from each group and (H) VIP scores for each of the markers evaluated. Each dot in the score plot represents a separate mouse.
FIG. 2: MCTR3 promotes bone and cartilage repair. C57BL/6 mice were administered 100 μL K/B×N serum i.p. on day 0, 2 and 8. Mice were treated with 1 μg/mouse MCTR3 or vehicle (PBS+0.1% EtOH) i.v. on day 10, 12 and 14. Hind paws and blood were collected on day 25 and A) glycosaminoglycan content was evaluated using Safranin-O staining. (left and centre panels) Representative images from Safranin-O stained knee joints and (right panel) quantification of Safranin-O stained knee joints. Results are mean±SEM, n=8 per group. Statistical differences were evaluated using Mann-Whitney U test. B-D) Expression of collagen type 2 (Col 2) and collagen type X (Col X) was evaluated using immunohistochemistry. B) Representative images from immunofluorescent assessment of Col 2 and Col X expression, C) mean intensity of Col 2 and D) average number of cells expressing Col X. Results are mean±SEM, n=5 per group, statistical differences were evaluated using Mann-Whitney U test. E-I) microCT analysis was performed on ankle joints ex vivo to assess bone callus cover. D) Representative images of ankles from vehicle and MCTR3 treated mice, where red represents the callus area. F) Callus tissue volume, G) bone volume, H) bone surface and I) the ratio of bone surface to bone volume of the ankles from mice treated with either vehicle or MCTR3. Results are mean±SEM, n=8 per group from two separate experiments. Statistical differences were evaluated Mann-Whitney U test. J,K) Blood was collected at the end of the experiment and plasma PINP and CTX-I levels were assessed. Results are mean±SEM, n=5 for Vehicle and n=7 for MCTR3 groups. Statistical differences were evaluated Mann Whitney U test.
FIG. 8: MCTR3 decreased leukocyte infiltration and cartilage damage in arthritic mice. Related to FIG. 1. C57BL/6 mice were administered 100 μL K/B×N serum i.p. on day 0, 2 and 8. Mice were treated with 1 μg/mouse MCTR3 or vehicle i.v. (PBS+0.1% EtOH) on day 10, 12 and 14. Hind paws were collected on day 25, fixed and stained using H&E stain. (A) representative images (B) Pannus size (C) leukocyte infiltration and (D) cartilage damage were evaluated. Results are mean±SEM. n=5 mice per group. IFP=intrapatellar fat, M=meniscus, TB=Tibia, PF=Pannus formation, Red arrows denote leukocyte infiltration. […]

[1] = 1 μg/mouse i.v. on day 10, 12 and 14
[2] = 1 μg/mouse i.v. on day 10, 12 and 14, hind paws day 25
[3] = 1 μg/mouse i.v., ELISA, end of experiment
[4] = 1 μg/mouse i.v., ankle joints day 25, microCT
[5] = 1 μg/mouse i.v., day 25, flow cytometry, VIP score
[6] = 1 μg/mouse i.v., day 25, immunohistochemistry

## CC/C=C\C/C=C\C[C@H](O)[C@@H](/C=C/C=C/C=C\C/C=C\CCC(=O)O)SC[C@H](N)C(=O)O [MCTR3, 13R-cysteinyl, 14S-hydroxy-4Z, 7Z, 9E, 11E, 13R, 14S, 16Z, 19Z-docosahexaenoic acid]
[1]
  clinical scores: significant reduction
  joint oedema: marked reduction
1 μg/mouse i.v. on day 10, 12 and 14, day 25
  safranin O-staining in joints (glycosaminoglycan content): significantly higher
[2]
  cartilage damage (H&E): significantly reducing
  leukocyte infiltration (H&E): significantly reducing
1 μg/mouse i.v. on day 10, 12 and 14, vehicle ~9 days
  resolution interval: ~5 days
[3]
  plasma CTX concentrations (bone resorption marker): significant reduction
  plasma PINP levels (bone formation marker): similar
[4]
  bone callus size (total volume and surface area occupied by the callus): smaller
  surface to volume ratio in the callus: significant increase
[5]
  Arginase (Arg)-1 in joint macrophages: upregulation
  Interleukin (IL)-10 in joint macrophages: upregulation
[6]
  expression of collagen 2 in joints: increase
  expression of collagen X in joints: increase
